Columns and labels:
brain tumor (C6 glioma) [1] = assay: distribution (% ID/g) in the mouse body; format: in vivo; details: FIG. 5; except kidney and pancreas
Source text: Further, FIG. 5 is a graph representing a distribution (% ID/g) of the ^18F-FAMT-OMe of the present invention in the mouse body.

[2] = radiochemical purity over time after production; format: physicochemical; details: after 5 hours of production, FIG. 1
Source text: A result of measuring radiochemical purity of the obtained compound 3 is illustrated in FIG. 1.

[3] = changes over time in accumulation in the kidney (SUV, PET); format: in vivo, mouse; details: FIG. 3, SUV based on the radiation dose of blood
Protocol: (§1) ^18F-FAMT-OMe synthesized in the Example 1 was administered to a model mouse of brain tumor (C6 glioma), and accumulation properties thereof were observed Specifically, a solution containing about 10 MBq of ^18F-FAMT-OMe was intravenously injected into the mouse, and PET images were acquired at regular intervals.
In addition, FIG. 3 (left drawing) illustrates a result of measuring changes over time in the accumulation of the ^18F-FAMT-OMe in the kidney on the basis of a standardized uptake value (SUV) value based on the radiation dose of blood. As a comparative example, a result of a case using the ^18F-FAMT is illustrated in FIG. 3 (right drawing). In addition, FIG. 4 is a graph comparing the maximum value of SUV (SUVmax) with the existing tracer compounds ^18F-FBPA and ^18F-FAMT.

brain tumor (C6 glioma) [4] = assay: PET imaging of tumor accumulation in C6 glioma model mouse; format: in vivo
Protocol: as §1

## COc1ccc(CC(C)(N)C(=O)O)cc1[18F] (stereo not drawn) [Compound 3]
Brain tumor (C6 glioma) [1]
  distribution (% ID/g): tumor versus normal organs and blood: significantly higher accumulation at a tumor site
[2]
  stability of radiochemical purity: purity was maintained even after 5 hours
[3]
  accumulation in the kidney over time (SUV): excreted from the kidney over time
Brain tumor (C6 glioma) [4]; about 10 MBq intravenously, model mouse of brain tumor (C6 glioma), FIG. 2
  accumulation at a tumor site (PET images): clear and high accumulation at a tumor site
Brain tumor (C6 glioma) [4]; in comparison with conventional ^18F-FAMT, FIG. 2
  washing out from tumor site: washing out was significantly gentle
Brain tumor (C6 glioma) [4]; one hour after administration, versus conventional ^18F-FAMT
  accumulation one hour after administration: better than that of the conventional ^18F-FAMT

Reference: patent publication US20250222145A1, “TRACER COMPOSITION FOR RADIOACTIVE PET DIAGNOSIS, INTERMEDIATE THEREOF, AND PRODUCTION METHOD THEREOF” (OSAKA UNIVERSITY, priority 2021, published 2025)
